Reference: patent publication US10570179B2, “Substituted urea depsipeptide analogs as activators of the CLPP endopeptidase” (priority 2016, dated 2020)
In brackets after ≈: the same amount, converted by molar mass. Numbered stars: 1 amine (or outer) side, 2 acyl side, 3 side chain; on linkers, the order of the positions; unused ones are H or OH. Bridge positions count the residues as written; N and C are the ends. Square brackets hold non-standard residues; d marks the D form. Peptide text beside a SMILES is read from it. * marks the point of attachment. Piperazine(2S-CO,4-Me) = CN1CCN[C@H](C(=O)O)C1; Phe(3,5-Me2) = Cc1cc(C)cc(C[C@H](N)C(=O)O)c1; Phe(3-OMe) = COc1cccc(C[C@H](N)C(=O)O)c1; Phe(3-Me) = Cc1cccc(C[C@H](N)C(=O)O)c1; NH(4-Cl-2-F-phenyl) = Fc1cc(Cl)ccc1N*; Pro(4R-Me) = C[C@H]1CN[C@H](C(=O)O)C1; Hyp = O=C(O)[C@@H]1C[C@@H](O)CN1; NH(4-Et-phenyl) = CCc1ccc(N*)cc1; aThr = C[C@H](O)[C@H](N)C(=O)O; Pip = O=C(O)[C@@H]1CCCCN1; CO = O=C([*:1])[*:2]; X2 = Fc1cc(N*)ccc1Cl

Tests used:
[1] = Microsomal metabolic stability; type: in vitro ADME, mouse; conditions: CD-1, mouse, pH 7.4
Outline: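 CD-1 mouse liver microsomes (0.6381 mg/mL protein microsomal solution, 0.1 M potassium phosphate pH 7.4 with EDTA) were incubated with compound and an NADPH-regenerating system at 37 °C, in triplicate. Acetonitrile/warfarin quench at 0, 15, 30, 60, 120 and 240 min, then LCMS. Half-life came from a first-order least-squares fit.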

S. aureus ΔClpP = assay: Minimal inhibitory concentration, microbroth dilution; type: cell-based, Staphylococcus aureus; conditions: MIC; ClpP inactivated
Outline: (§1)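 MIC is recorded by eye as the lowest drug concentration that stops bacterial growth. Compound is serially diluted twofold in broth, starting at 200 μM final, and bacteria are added at roughly 10^5 cfu/mL. Incubation runs overnight at 37 °C under aerobic conditions, per CLSI guidance.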

Sa-ClpP = biological target: T1, Sa-ClpP (Staphylococcus aureus, UniProt Q2G036); assay: ADEP displacement fluorescence polarization assay; type: binding, S. aureus; conditions: displacement of FP probe ADEP 2591 from Sa-ClpP
T1 construct: made in house; host or cells: E. coli BL21 (DE3)
Outline: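 Master mix of 15 μM Sa-ClpP and 50 nM TAMRA-labelled ADEP 2591 probe in Tris-HCl pH 8.0, 2% DMSO, was pre-equilibrated 1 h at RT, then compounds were added and incubated 120 min at RT. Polarization (ex 530, em 579 nm, mP) was normalised to 200 μM ADEP 2378 and DMSO controls and fitted by four-parameter regression, in triplicate.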

S. aureus ATCC 29213 = assay: Minimal inhibitory concentration, microbroth dilution; type: cell-based; conditions: Staphylococcus aureus, ATCC29213; MIC; read-out: Minimal Inhibitory Concentrations (μM) S. aureus ATCC 29213
Outline: as §1

MRSA NRS70 = assay: as above; type: cell-based; conditions: Staphylococcus aureus; MIC; read-out: Minimal Inhibitory Concentrations (μM) MRSA NRS70
Outline: as §1

S. aureus USA 300 = assay: as above; type: cell-based; conditions: Staphylococcus aureus, USA300; MIC; read-out: Minimal Inhibitory Concentrations (μM) S. aureus USA 300
Outline: as §1

E. faecails = assay: as above; type: cell-based; conditions: Enterococcus faecalis; MIC; read-out: Minimal Inhibitory Concentrations (μM) E. faecails
Outline: as §1

T1 sequence (Q2G036 whole entry): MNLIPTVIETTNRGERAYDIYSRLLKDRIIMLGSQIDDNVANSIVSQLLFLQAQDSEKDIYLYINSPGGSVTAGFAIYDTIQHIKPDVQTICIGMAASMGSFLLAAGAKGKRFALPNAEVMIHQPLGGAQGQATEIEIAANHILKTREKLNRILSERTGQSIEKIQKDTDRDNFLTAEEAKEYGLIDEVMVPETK

SMILES | Mouse [1] | Minimal Inhibitory Concentrations (μM) S. aureus ΔClpP (S. aureus ΔClpP) | IC50 (Sa-ClpP) | MIC (S. aureus ATCC 29213) | MIC (MRSA NRS70) | MIC (S. aureus USA 300) | MIC (E. faecails)
Cc1cc(C)cc(C[C@H](NC(=O)Nc2ccc(Cl)cc2F)C(=O)N[C@@H]2C(=O)N3CCC[C@H]3C(=O)N3CCCC[C@H]3C(=O)N[C@@H](C)C(=O)N3C[C@H](C)C[C@H]3C(=O)O[C@H]2C)c1 [Compound 4, (S)-2-(3-(4-CHLORO-2-FLUOROPHENYL)UREIDO)-3-(3,5-DIMETHYLPHENYL)-N-((2R,6S,8AS,14AS,20S,21S,23AS)-2,6,21-TRIMETHYL-5,8,14,19,23-PENTAOXOOCTADECAHYDRO-1H,5H,14H,19H-PYRIDO[2,1-I]DIPYRROLO[2,1-C:2′,1′-L][1]OXA[4,7,10,13]TETRAAZACYCLOHEXADECIN-20-YL)PROPANAMIDE] ({NH(4-Cl-2-F-phenyl)-CO}-[Phe(3,5-Me2)][aThr]P[Pip]A[Pro(4R-Me)]; ester 2-C) | 6.99 ± 1.07 h | 25 µM | 6.45 ± 0.4 µM | 0.625 µM (≈ 0.524 µg/mL) | 0.156 µM (≈ 0.131 µg/mL) | 0.625 µM (≈ 0.524 µg/mL) | 1.25 µM (≈ 1.05 µg/mL)
Cc1cccc(C[C@H](NC(=O)Nc2ccc(Cl)cc2F)C(=O)N[C@@H]2C(=O)N3C[C@H](O)C[C@H]3C(=O)N3CCCC[C@H]3C(=O)N[C@@H](C)C(=O)N3C[C@H](C)C[C@H]3C(=O)O[C@H]2C)c1 [Compound 6, (S)-2-(3-(4-CHLORO-2-FLUOROPHENYL)UREIDO)-N-((2R,6S,8AS,14AS,16R,20S,21S,23AS)-16-HYDROXY-2,6,21-TRIMETHYL-5,8,14,19,23-PENTAOXOOCTADECAHYDRO-1H,5H,14H,19H-PYRIDO[2,1-I]DIPYRROLO[2,1-C:2′,1′-L][1]OXA[4,7,10,13]TETRAAZACYCLOHEXADECIN-20-YL)-3-(M-TOLYL)PROPANAMIDE] ({NH(4-Cl-2-F-phenyl)-CO}-[Phe(3-Me)][aThr][Hyp][Pip]A[Pro(4R-Me)]; ester 2-C) | 4.61 ± 1.2 h | >20 µM | 3 ± 0.2 µM | 0.078 µM (≈ 0.0655 µg/mL) | 0.078 µM (≈ 0.0655 µg/mL) | 0.156 µM (≈ 0.131 µg/mL) | 0.078 µM (≈ 0.0655 µg/mL)
Cc1cccc(C[C@H](NC(=O)Nc2ccc(Cl)c(F)c2)C(=O)N[C@H]2COC(=O)[C@@H]3C[C@@H](C)CN3C(=O)[C@H](C)NC(=O)[C@@H]3CN(C)CCN3C(=O)[C@@H]3CCCN3C2=O)c1 [Compound 14, (S)-2-(3-(4-CHLORO-3-FLUOROPHENYL)UREIDO)-3-(M-TOLYL)-N-((6AS,12S,15AS,17R,21S,23AS)-2,17,21-TRIMETHYL-6,11,15,20,23-PENTAOXOOCTADECAHYDRO-2H,6H,11H,15H-PYRAZINO[2,1-I]DIPYRROLO[2,1-C:2′,1′-L][1]OXA[4,7,10,13]TETRAAZACYCLOHEXADECIN-12-YL)PROPANAMIDE] ({X2-CO}-[Phe(3-Me)]SP[Piperazine(2S-CO,4-Me)]A[Pro(4R-Me)]; ester 2-C) | 3.15 ± 0.26 h | >20 µM | 5.19 ± 0.2 µM | 5 µM (≈ 4.13 µg/mL) | 2.5 µM (≈ 2.06 µg/mL) | 5 µM (≈ 4.13 µg/mL) | 1.25 µM (≈ 1.03 µg/mL)
CCc1ccc(NC(=O)N[C@@H](Cc2cccc(C)c2)C(=O)N[C@H]2COC(=O)[C@@H]3C[C@@H](C)CN3C(=O)[C@H](C)NC(=O)[C@@H]3CN(C)CCN3C(=O)[C@@H]3CCCN3C2=O)cc1 [Compound 16, (S)-2-(3-(4-ETHYLPHENYL)UREIDO)-3-(M-TOLYL)-N-((6AS,12S,15AS,17R,21S,23AS)-2,17,21-TRIMETHYL-6,11,15,20,23-PENTAOXOOCTADECAHYDRO-2H,6H,11H,15H-PYRAZINO[2,1-I]DIPYRROLO[2,1-C:2′,1′-L][1]OXA[4,7,10,13]TETRAAZACYCLOHEXADECIN-12-YL)PROPANAMIDE] ({NH(4-Et-phenyl)-CO}-[Phe(3-Me)]SP[Piperazine(2S-CO,4-Me)]A[Pro(4R-Me)]; ester 2-C) | 1.80 ± 0.09 h | >20 µM | 5.46 ± 0.2 µM | 1.25 µM (≈ 1 µg/mL) | 0.313 µM (≈ 0.251 µg/mL) | 0.625 µM (≈ 0.501 µg/mL) | 0.156 µM (≈ 0.125 µg/mL)
COc1cccc(C[C@H](NC(=O)Nc2ccc(Cl)cc2F)C(=O)N[C@H]2COC(=O)[C@@H]3C[C@@H](C)CN3C(=O)[C@H](C)NC(=O)[C@@H]3CN(C)CCN3C(=O)[C@@H]3CCCN3C2=O)c1 [Compound 19, (S)-2-(3-(4-CHLORO-2-FLUOROPHENYL)UREIDO)-3-(3-METHOXYPHENYL)-N-((6AS,12S,15AS,17R,21S,23AS)-2,17,21-TRIMETHYL-6,11,15,20,23-PENTAOXOOCTADECAHYDRO-2H,6H,11H,15H-PYRAZINO[2,1-I]DIPYRROLO[2,1-C:2′,1′-L][1]OXA[4,7,10,13]TETRAAZACYCLOHEXADECIN-12-YL)PROPANAMIDE] ({NH(4-Cl-2-F-phenyl)-CO}-[Phe(3-OMe)]SP[Piperazine(2S-CO,4-Me)]A[Pro(4R-Me)]; ester 2-C) | 0.80 ± 0.05 h | >20 µM | 6.05 ± 0.3 µM | 10 µM (≈ 8.41 µg/mL) | 10 µM (≈ 8.41 µg/mL) | 10 µM (≈ 8.41 µg/mL) | 10 µM (≈ 8.41 µg/mL)
